Measured values: patent US20100029673A1, “THERAPEUTIC AGENTS COMPRISING AN ANTI-ANGIOGENIC AGENT IN COMBINATION WITH AN SRC-INHIBITOR AND THEIR THERAPEUTIC USE” (AstraZeneca AB, priority 2003, published 2010)

How the values were obtained:
[1] = test system: normotensive rats (Alderley Park strain, male animals); experiment: Measurement of blood pressure in conscious rats by radio-telemetry; type: in vivo, rat; conditions: single dose p.o. of a combination of 1.5 mg/kg of VTK-1 and 25 mg/kg of Src-1 vs control citrate buffer vehicle; FIGS. 1-3
Protocol: Blood pressure was measured using commercially-available radio-telemetry equipment (Data Sciences International, Saint Paul, Minn., USA) which provides a means for the remote measurement of the blood pressure (BP), heart rate and activity of a conscious, unrestrained laboratory animal such as a rat. Measurements obtained using this system have the advantage that the test animal is free from stresses induced by surgery and/or restraint.
The equipment comprises a pressure transducer (Code No. TA11PA-C40; hereinafter the ‘pressure transducer implant’) that is implanted into the abdomen of a laboratory rat. The transducer transmits a radio signal indicating the pressure in the aorta of the animal and the signal is detected by a receiver (RA1010) placed under the plastic cage which houses the animal. The signal is recorded and evaluated automatically by pre-written computer software (DataQuest 2.1 that may be installed on a suitable computer such as an IBM-compatible personal computer containing an Intel™ 486 processor). […]
The animals were housed in a facility using a 12 hour cycle of light and dark. […] Blood pressure data were recorded from each animal every 10 minutes throughout each Study.
Typically, on day 1, each of a group of 3 rats was dosed p.o. at approximately 9.00 am with control vehicle and blood pressure data were recorded during the ensuing 24 hour period. […]

conscious rats = conditions: cited from earlier work
dog coronary arteries = conditions: cited from earlier work
anaesthetized rats = conditions: 15 μg/kg bFGF; cited from earlier work

Compound: CC(=O)N1CCN(CCOc2cc(OC(C)C)c3c(Nc4c(Cl)ccc5c4OCO5)ncnc3c2)CC1 [Src-1, 7-[2-(4-acetylpiperazin-1-yl)ethoxy]-4-(6-chloro-2,3-methylenedioxyanilino)-5-isopropoxyquinazoline]
- contrasting blood pressure effects (diastolic blood pressure profile) [1]: substantially counter-balanced

Compound: COc1cc2c(Oc3ccc4[nH]c(C)cc4c3F)ncnc2cc1OCCCN1CCCCC1 [VTK-1, 4-(4-fluoro-2-methylindol-5-yloxy)-6-methoxy-7-(3-piperidinopropoxy)quinazoline]
- contrasting blood pressure effects (diastolic blood pressure profile) [1]: substantially counter-balanced

Compound: VEGF
- return to normal blood pressure (conscious rats; VEGF 250 μg/kg, conscious rats): ≤ 20 min
- effect on blood pressure in the conscious rat (conscious rats; conscious rat): induce hypotension
- effect on dog coronary arteries in vitro (dog coronary arteries): dilate dog coronary arteries

Compound: bFGF: basic fibroblast growth factor
- blood pressure returning to normal (anaesthetized rats): ≤ 30 min
